Source: patent US20250213701A1, “MEDICAMENT FOR TREATING HUMAN TUMOR BASED ON ERF3A-TARGETING PROTEOLYSIS MECHANISM” (SUZHOU DEGEN BIO-MEDICAL CO., LTD., priority 2022, published 2025)

Columns and labels:
Type in all cases: cell-based, human
22Rv1 cells = assay: Anti-proliferative toxicity against prostate cancer cell line 22Rv1 (CCK8); conditions: Homo sapiens, 72 h, 3 days, CCK8
Protocol: (§1) Example 82: Detection of Anti-Proliferative Toxicity Against Prostate Cancer Cell Lines Vcap, 22Rv1, and PC-3
(§2) Vcap cells (purchased from the Cell Bank of the Chinese Academy of Sciences, Cat. No. SCSP-5034) were subcultured in a culture medium (DMEM medium+1% penicillin-streptomycin dual-antibiotic solution+10% fetal bovine serum) in an incubator at 5% carbon dioxide and 37° C. 22Rv1 cells (purchased from the Cell Bank of the Chinese Academy of Sciences, Cat. No. TCHu100) were subcultured in a culture medium (RPMI-1640 medium+1% penicillin-streptomycin dual-antibiotic solution+10% fetal bovine serum) in an incubator at 5% carbon dioxide and 37° C.
22Rv1 cells were seeded at 5000 cells/well (90 μL) on a 96-well plate and cultured for 48 h.
(§3) 10 mM compound stock solutions were prepared in DMSO.
(§4) For 22Rv1 cells and PC-3 cells, the compound stock solution was diluted with DMSO to give DMSO solutions 11-19 at concentrations of 0 μM, 500 μM, 100 μM, 20 μM, 4 μM, 0.8 μM, 0.16 μM, 0.032 μM, 0.0064 μM.
For 22Rv1 cells, 2 μL of each of the above solutions 11-19 was added to 98 μL of 22Rv1 medium to give mixed solutions 30-38 of the compound and the medium.
(§5) For 22Rv1 and PC-3 cells, 10 μL of each of the above solutions 30-38 or 39-47 was added to the above cell seed solution to give a total volume of 100 μL (90 μL+10 μL), where the concentrations of the compound in wells were 0 μM, 1.0 μM, 0.2 μM, 0.04 μM, 0.008 μM, 0.0016 μM, 0.00032 μM, 0.00006 μM, and 0.00001 μM. All concentrations were in triplicate.
(§6) After the above-treated cells were cultured for 3 days, 10 μL of the CCK8 solution (DOJINDO, Cat. No. PF725) was added to each well. The plate was incubated in an incubator at 37° C. for 1-4 h and then detected on a microplate reader for the reading at 450 nm.

PC-3 cells = assay: Anti-proliferative toxicity against prostate cancer cell line PC-3 (CCK8); conditions: Homo sapiens, 72 h, 3 days
Protocol: as §1
PC-3 cells (purchased from the Cell Bank of the Chinese Academy of Sciences, Cat. No. SCSP-532) were subcultured in a culture medium (F12K medium+1% penicillin-streptomycin dual-antibiotic solution+10% fetal bovine serum) in an incubator at 5% carbon dioxide and 37° C.
PC-3 cells were seeded at 4000 cells/well (90 μL) on a 96-well plate and cultured for 24 h.
as §3, §4
For PC-3 cells, 2 μL of each of the above solutions 11-19 was added to 98 μL of PC-3 medium to give mixed solutions 39-47 of the compound and the medium.
as §5, §6

VCaP cells = assay: Anti-proliferative toxicity against prostate cancer cell line Vcap (CCK8); conditions: Homo sapiens, 72 h, 3 days, CCK8
Protocol: as §1, §2
VCap cells were seeded at 20000 cells/well (90 μL) on a 96-well plate and cultured for 72 h. The original medium was removed, and a new medium of 90 μL was added.
as §3
For VCap cells, the compound stock solution was diluted with DMSO to give DMSO solutions 1-10 at concentrations of 0 μM, 80 μM, 16 μM, 3.2 μM, 1.5 μM, 0.5 μM, 0.15 μM, 0.05 μM, 0.025 μM, and 0.0005 μM.
For Vcap cells, 2 μL of each of the above solutions 1-10 was added to 98 μL of Vcap medium to give mixed solutions 20-29 of the compound and the medium.
For Vcap cells, 10 μL of each of the above solutions 20-29 was added to the above cell seed solution to give a total volume of 100 μL (90 μL+10 μL), where the concentrations of the compound in wells were 0 μM, 0.16 μM, 0.032 μM, 0.006 μM, 0.003 μM, 0.001 μM, 0.0003 μM, 0.0001 μM, 0.00005 μM, and 0.00001 μM. All concentrations were in triplicate.
as §6

Structure (SMILES) | IC50 (22Rv1 cells) [nM] | IC50 (PC-3 cells) [nM] | IC50 (VCaP cells) [nM]
C[C@]12C=CC(=O)N[C@@H]1CC[C@@H]1[C@@H]2CC[C@]2(C)[C@@H](C(=O)NCCNc3cccc4c3C(=O)N(C3CCC(=O)NC3=O)C4=O)CC[C@@H]12 (stereo partly drawn) [C1, N-(2-((4-(2-(3-(2,6-dioxopiperidine))-isoindole-1,3-dione))amino)ethyl)-3-oxo-4-aza-5α-androst-1-ene-17β-carboxamide] | > 1000 | > 1000 | > 1000
C[C@]12C=CC(=O)N[C@@H]1CC[C@@H]1[C@@H]2CC[C@]2(C)[C@@H](C(=O)NCCNc3ccc4c(c3)C(=O)N(C3CCC(=O)NC3=O)C4=O)CC[C@@H]12 (stereo partly drawn) [C2, N-(2-((5-(2-(3-(2,6-dioxopiperidine))-isoindole-1,3-dione))amino)ethyl)-3-oxo-4-aza-5α-androst-1-ene-17β-carboxamide] | > 1000 | > 1000 | > 1000
C[C@]12C=CC(=O)N[C@@H]1CC[C@@H]1[C@@H]2CC[C@]2(C)[C@@H](C(=O)NCCCNc3cccc4c3C(=O)N(C3CCC(=O)NC3=O)C4=O)CC[C@@H]12 (stereo partly drawn) [C3, N-(3-((4-(2-(3-(2,6-dioxopiperidine))-isoindole-1,3-dione))amino)propyl)-3-oxo-4-aza-5α-androst-1-ene-17β-carboxamide] | > 1000 | > 1000 | > 1000
C[C@]12C=CC(=O)N[C@@H]1CC[C@@H]1[C@@H]2CC[C@]2(C)[C@@H](C(=O)NCCCNc3ccc4c(c3)C(=O)N(C3CCC(=O)NC3=O)C4=O)CC[C@@H]12 (stereo partly drawn) [C4, N-(3-((5-(2-(3-(2,6-dioxopiperidine))-isoindole-1,3-dione))amino)propyl)-3-oxo-4-aza-5α-androst-1-ene-17β-carboxamide] | > 1000 | > 1000 | > 1000
C[C@]12C=CC(=O)N[C@@H]1CC[C@@H]1[C@@H]2CC[C@]2(C)[C@@H](C(=O)NCCCCNc3cccc4c3C(=O)N(C3CCC(=O)NC3=O)C4=O)CC[C@@H]12 (stereo partly drawn) [C5, N-(4-((4-(2-(3-(2,6-dioxopiperidine))-isoindole-1,3-dione))amino)butyl)-3-oxo-4-aza-5α-androst-1-ene-17β-carboxamide] | > 1000 | > 1000 | > 1000
C[C@]12C=CC(=O)N[C@@H]1CC[C@@H]1[C@@H]2CC[C@]2(C)[C@@H](C(=O)NCCCCNc3ccc4c(c3)C(=O)N(C3CCC(=O)NC3=O)C4=O)CC[C@@H]12 (stereo partly drawn) [C6, N-(4-((5-(2-(3-(2,6-dioxopiperidine))-isoindole-1,3-dione))amino)butyl)-3-oxo-4-aza-5α-androst-1-ene-17β-carboxamide] | > 1000 | > 1000 | > 1000
C[C@]12C=CC(=O)N[C@@H]1CC[C@@H]1[C@@H]2CC[C@]2(C)[C@@H](C(=O)NCCCCCNc3cccc4c3C(=O)N(C3CCC(=O)NC3=O)C4=O)CC[C@@H]12 (stereo partly drawn) [C7, N-(5-((4-(2-(3-(2,6-dioxopiperidine))-isoindole-1,3-dione))amino)pentyl)-3-oxo-4-aza-5α-androst-1-ene-17β-carboxamide] | > 1000 | > 1000 | > 1000
C[C@]12C=CC(=O)N[C@@H]1CC[C@@H]1[C@@H]2CC[C@]2(C)[C@@H](C(=O)NCCCCCNc3ccc4c(c3)C(=O)N(C3CCC(=O)NC3=O)C4=O)CC[C@@H]12 (stereo partly drawn) [C8, N-(5-((5-(2-(3-(2,6-dioxopiperidine))-isoindole-1,3-dione))amino)pentyl)-3-oxo-4-aza-5α-androst-1-ene-17β-carboxamide] | > 1000 | > 1000 | > 1000
C[C@]12C=CC(=O)N[C@@H]1CC[C@@H]1[C@@H]2CC[C@]2(C)[C@@H](C(=O)NCCCCCCNc3cccc4c3C(=O)N(C3CCC(=O)NC3=O)C4=O)CC[C@@H]12 (stereo partly drawn) [C9, N-(6-((4-(2-(3-(2,6-dioxopiperidine))-isoindole-1,3-dione))amino)hexyl)-3-oxo-4-aza-5α-androst-1-ene-17β-carboxamide] | > 1000 | > 1000 | > 1000
C[C@]12C=CC(=O)N[C@@H]1CC[C@@H]1[C@@H]2CC[C@]2(C)[C@@H](C(=O)NCCCCCCNc3ccc4c(c3)C(=O)N(C3CCC(=O)NC3=O)C4=O)CC[C@@H]12 (stereo partly drawn) [C10, N-(6-((5-(2-(3-(2,6-dioxopiperidine))-isoindole-1,3-dione))amino)hexyl)-3-oxo-4-aza-5α-androst-1-ene-17β-carboxamide] | > 1000 | > 1000 | > 1000
C[C@]12C=CC(=O)N[C@@H]1CC[C@@H]1[C@@H]2CC[C@]2(C)[C@@H](C(=O)NCCCCCCCNc3cccc4c3C(=O)N(C3CCC(=O)NC3=O)C4=O)CC[C@@H]12 (stereo partly drawn) [C11, N-(7-((4-(2-(3-(2,6-dioxopiperidine))-isoindole-1,3-dione))amino)heptyl)-3-oxo-4-aza-5α-androst-1-ene-17β-carboxamide] | > 1000 | > 1000 | > 1000
C[C@]12C=CC(=O)N[C@@H]1CC[C@@H]1[C@@H]2CC[C@]2(C)[C@@H](C(=O)NCCCCCCCNc3ccc4c(c3)C(=O)N(C3CCC(=O)NC3=O)C4=O)CC[C@@H]12 (stereo partly drawn) [C12, N-(7-((5-(2-(3-(2,6-dioxopiperidine))-isoindole-1,3-dione))amino)heptyl)-3-oxo-4-aza-5α-androst-1-ene-17β-carboxamide] | > 1000 | > 1000 | > 1000
C[C@]12C=CC(=O)N[C@@H]1CC[C@@H]1[C@@H]2CC[C@]2(C)[C@@H](C(=O)N3CCC(CN4CCN(c5cccc6c5C(=O)N(C5CCC(=O)NC5=O)C6=O)CC4)CC3)CC[C@@H]12 (stereo partly drawn) [C13, 1-(4-(2-(3-(2,6-dioxopiperidine))-isoindole-1,3-dione))-4-(4-(1-(3-oxo-4-aza-5α-androst-1-ene-17β-formyl)piperidine)methyl)-piperazine] | > 1000 | > 1000 | > 1000
C[C@]12C=CC(=O)N[C@@H]1CC[C@@H]1[C@@H]2CC[C@]2(C)[C@@H](C(=O)N3CCC(CN4CCN(c5ccc6c(c5)C(=O)N(C5CCC(=O)NC5=O)C6=O)CC4)CC3)CC[C@@H]12 (stereo partly drawn) [C14, 1-(5-(2-(3-(2,6-dioxopiperidine))-isoindole-1,3-dione))-4-(4-(1-(3-oxo-4-aza-5α-androst-1-ene-17β-formyl)piperidine)methyl)-piperazine] | > 1000 | > 1000 | > 1000
C[C@]12C=CC(=O)N[C@@H]1CC[C@@H]1[C@@H]2CC[C@]2(C)[C@@H](C(=O)Nc3ccc(OCCNc4cccc5c4C(=O)N(C4CCC(=O)NC4=O)C5=O)cc3)CC[C@@H]12 (stereo partly drawn) [C15, N-(4-((2-((4-(2-(3-(2,6-dioxopiperidine))-isoindole-1,3-dione))amino)ethyl)oxy)phenyl)-3-oxo-4-aza-5α-androst-1-ene-17β-carboxamide] | > 1000 | > 1000 | 10 to 1000
C[C@]12C=CC(=O)N[C@@H]1CC[C@@H]1[C@@H]2CC[C@]2(C)[C@@H](C(=O)Nc3ccc(OCCNc4ccc5c(c4)C(=O)N(C4CCC(=O)NC4=O)C5=O)cc3)CC[C@@H]12 (stereo partly drawn) [C16, N-(4-((2-((5-(2-(3-(2,6-dioxopiperidine))-isoindole-1,3-dione))amino)ethyl)oxy)phenyl)-3-oxo-4-aza-5α-androst-1-ene-17β-carboxamide] | > 1000 | > 1000 | > 1000
